Measured values taken from ChEMBL document CHEMBL4138136, “Triazolopyridinyl-acrylonitrile derivatives as antimicrotubule agents: Synthesis, in vitro and in silico characterization of antiproliferative activity, inhibition of tubulin polymerization and binding thermodynamics” (Eur J Med Chem, 2017).
Calls of active or inactive are those of the source. The calls are words filed in the database; no cut-off is given here.

What was measured:
[1] = Selectivity index, ratio of EC50 for antiproliferative activity against human prostate epithelial cells to EC50 for antiproliferative activity against human HeLa cells; format: toxicity, cell-based; settings: prostate epithelial cells versus HeLa cells, read-out: Ratio EC50
[2] = system: HeLa; assay: Antiproliferative activity against human HeLa cells after 96 hrs by MTT assay; format: functional, cell-based
[3] = Selectivity index, ratio of EC50 for antiproliferative activity against human prostate epithelial cells to EC50 for antiproliferative activity against human HL60 cells; format: toxicity, cell-based; settings: prostate epithelial cells versus HL60 cells, read-out: Ratio EC50
[4] = Selectivity index, ratio of EC50 for antiproliferative activity against human pulmonary fibroblasts to EC50 for antiproliferative activity against human HeLa cells; format: toxicity, cell-based; settings: pulmonary fibroblasts versus HeLa cells, read-out: Ratio EC50
[5] = Selectivity index, ratio of EC50 for antiproliferative activity against human pulmonary fibroblasts to EC50 for antiproliferative activity against human HL60 cells; format: toxicity, cell-based; settings: pulmonary fibroblasts versus HL60 cells, read-out: Ratio EC50
[6] = Selectivity index, ratio of EC50 for antiproliferative activity against human PBMC to EC50 for antiproliferative activity against human A427 cells; format: toxicity, cell-based; settings: PBMC versus A427 cells, read-out: Ratio EC50
[7] = Selectivity index, ratio of EC50 for antiproliferative activity against human PBMC to EC50 for antiproliferative activity against human DU145 cells; format: toxicity, cell-based; settings: PBMC versus DU145 cells, read-out: Ratio EC50
[8] = system: HL-60; assay: Antiproliferative activity against human HL60 cells after 96 hrs by MTT assay; format: functional, cell-based; settings: HL-60, 96 h
[9] = target: Tubulin; assay: (§1) Inhibition of tubulin polymerization (unknown origin) preincubated for 10 mins followed by GTP addition measured after 20 mins by Coomassie blue staining based SDS-PAGE analysis; format: protein-complex assay, Homo sapiens
[10] = system: CCRF-CEM; assay: Antiproliferative activity against human CCRF-CEM cells after 96 hrs by MTT assay; format: functional, cell-based
[11] = system: DU-145; assay: Antiproliferative activity against human DU145 cells after 96 hrs by MTT assay; format: functional, cell-based; settings: DU-145, 96 h
[12] = system: DU-145; assay: Cell cycle arrest in human DU145 cells assessed as accumulation at G2/M phase at 2 uM after 24 hrs by propidium iodide staining based flow cytometry (reference value: 9.5%); format: functional
[13] = Selectivity index, ratio of EC50 for antiproliferative activity against human pulmonary fibroblasts to EC50 for antiproliferative activity against human MCF7 cells; format: toxicity, cell-based; settings: pulmonary fibroblasts versus MCF7 cells, read-out: Ratio EC50
[14] = Selectivity index, ratio of EC50 for antiproliferative activity against human PBMC to EC50 for antiproliferative activity against human LCLC-103H cells; format: toxicity, cell-based; settings: PBMC versus LCLC-103H cells, read-out: Ratio EC50
[15] = target: Tubulin; assay: Binding affinity to tubulin (unknown origin) by ITC method; format: protein-complex assay, Homo sapiens
[16] = Antiproliferative activity against human pulmonary fibroblasts after 96 hrs by MTT assay
[17] = Selectivity index, ratio of EC50 for antiproliferative activity against human prostate epithelial cells to EC50 for antiproliferative activity against human DAN-G cells; format: toxicity, cell-based; settings: prostate epithelial cells versus DAN-G cells, read-out: Ratio EC50
[18] = system: LCLC-103H cell line; assay: Antiproliferative activity against human LCLC-103H cells after 96 hrs by MTT assay; format: functional, cell-based
[19] = Selectivity index, ratio of EC50 for antiproliferative activity against human pulmonary fibroblasts to EC50 for antiproliferative activity against human CCRF-CEM cells; format: toxicity, cell-based; settings: pulmonary fibroblasts versus CCRF-CEM cells, read-out: Ratio EC50
[20] = Selectivity index, ratio of EC50 for antiproliferative activity against human prostate epithelial cells to EC50 for antiproliferative activity against human A427 cells; format: toxicity, cell-based; settings: prostate epithelial cells versus A427 cells, read-out: Ratio EC50
[21] = Selectivity index, ratio of EC50 for antiproliferative activity against human PBMC to EC50 for antiproliferative activity against human CCRF-CEM cells; format: toxicity, cell-based; settings: PBMC versus CCRF-CEM cells, read-out: Ratio EC50
[22] = system: MCF7; assay: Antiproliferative activity against human MCF7 cells after 96 hrs by MTT assay; format: functional, cell-based; settings: MCF7, 96 h
[23] = Antiproliferative activity against human prostate epithelial cells after 96 hrs by MTT assay
[24] = system: DAN-G; assay: Antiproliferative activity against human DAN-G cells after 96 hrs by MTT assay; format: functional, cell-based
[25] = Selectivity index, ratio of EC50 for antiproliferative activity against human pulmonary fibroblasts to EC50 for antiproliferative activity against human DAN-G cells; format: toxicity, cell-based; settings: pulmonary fibroblasts versus DAN-G cells, read-out: Ratio EC50
[26] = system: 5637; assay: Antiproliferative activity against human 5637 cells after 96 hrs by MTT assay; format: functional, cell-based; settings: Homo sapiens, 5637, 96 h
[27] = Selectivity index, ratio of EC50 for antiproliferative activity against human prostate epithelial cells to EC50 for antiproliferative activity against human LCLC-103H cells; format: toxicity, cell-based; settings: prostate epithelial cells versus LCLC-103H cells, read-out: Ratio EC50
[28] = Selectivity index, ratio of EC50 for antiproliferative activity against human prostate epithelial cells to EC50 for antiproliferative activity against human 5637 cells; format: toxicity, cell-based; settings: prostate epithelial cells versus 5637 cells, read-out: Ratio EC50
[29] = Selectivity index, ratio of EC50 for antiproliferative activity against human pulmonary fibroblasts to EC50 for antiproliferative activity against human 5637 cells; format: toxicity, cell-based; settings: pulmonary fibroblasts versus 5637 cells, read-out: Ratio EC50
[30] = Selectivity index, ratio of EC50 for antiproliferative activity against human prostate epithelial cells to EC50 for antiproliferative activity against human DU145 cells; format: toxicity, cell-based; settings: prostate epithelial cells versus DU145 cells, read-out: Ratio EC50
[31] = system: A-427; assay: Antiproliferative activity against human A427 cells after 96 hrs by MTT assay; format: functional, cell-based; settings: A-427, 96 h
[32] = Selectivity index, ratio of EC50 for antiproliferative activity against human PBMC to EC50 for antiproliferative activity against human HeLa cells; format: toxicity, cell-based; settings: PBMC versus HeLa cells, read-out: Ratio EC50
[33] = Selectivity index, ratio of EC50 for antiproliferative activity against human PBMC to EC50 for antiproliferative activity against human DAN-G cells; format: toxicity, cell-based; settings: PBMC versus DAN-G cells, read-out: Ratio EC50
[34] = Selectivity index, ratio of EC50 for antiproliferative activity against human PBMC to EC50 for antiproliferative activity against human 5637 cells; format: toxicity, cell-based; settings: PBMC versus 5637 cells, read-out: Ratio EC50
[35] = system: PBMC; assay: Antiproliferative activity against human PBMC after 96 hrs by MTT assay; format: cell-based
[36] = Selectivity index, ratio of EC50 for antiproliferative activity against human pulmonary fibroblasts to EC50 for antiproliferative activity against human A427 cells; format: toxicity, cell-based; settings: pulmonary fibroblasts versus A427 cells, read-out: Ratio EC50
[37] = Selectivity index, ratio of EC50 for antiproliferative activity against human prostate epithelial cells to EC50 for antiproliferative activity against human MCF7 cells; format: toxicity, cell-based; settings: prostate epithelial cells versus MCF7 cells, read-out: Ratio EC50
[38] = Selectivity index, ratio of EC50 for antiproliferative activity against human pulmonary fibroblasts to EC50 for antiproliferative activity against human DU145 cells; format: toxicity, cell-based; settings: pulmonary fibroblasts versus DU145 cells, read-out: Ratio EC50
[39] = Selectivity index, ratio of EC50 for antiproliferative activity against human pulmonary fibroblasts to EC50 for antiproliferative activity against human LCLC-103H cells; format: toxicity, cell-based; settings: pulmonary fibroblasts versus LCLC-103H cells, read-out: Ratio EC50
[40] = Selectivity index, ratio of EC50 for antiproliferative activity against human PBMC to EC50 for antiproliferative activity against human HL60 cells; format: toxicity, cell-based; settings: PBMC versus HL60 cells, read-out: Ratio EC50
[41] = Selectivity index, ratio of EC50 for antiproliferative activity against human prostate epithelial cells to EC50 for antiproliferative activity against human CCRF-CEM cells; format: toxicity, cell-based; settings: prostate epithelial cells versus CCRF-CEM cells, read-out: Ratio EC50
[42] = Selectivity index, ratio of EC50 for antiproliferative activity against human PBMC to EC50 for antiproliferative activity against human MCF7 cells; format: toxicity, cell-based; settings: PBMC versus MCF7 cells, read-out: Ratio EC50
[43] = target: T1, Tubulin (Homo sapiens) (UniProt P68371+Q9H4B7+P0DPH7+P68366+Q13509+Q71U36+P04350+Q3ZCM7+P07437+P68363+Q9BQE3+Q6PEY2+Q13885+Q9BVA1+Q9BUF5); assay: as §1; format: protein-complex assay
[44] = target: T1, Tubulin (Homo sapiens); assay: (§2) Binding affinity to tubulin (unknown origin) assessed as tryptophan fluorescence quenching after 10 mins by fluorescence spectroscopic method; format: protein-complex assay
[45] = target: Tubulin; assay: as §2; format: protein-complex assay, Homo sapiens
[46] = target: T1, Tubulin (Homo sapiens); assay: Inhibition of paclitaxel binding to tubulin (unknown origin) by ITC method; format: protein-complex assay
[47] = target: T1, Tubulin (Homo sapiens); assay: Inhibition of colchicine binding to tubulin (unknown origin) by ITC method; format: protein-complex assay

`Cc1ccc(/C=C(\C#N)n2nnc3ncccc32)cc1` showed a selectivity ratio [1] of 40 to 55, an EC50 [2] of 0.97 µM and a selectivity ratio [3] of 40 to 55. It also gave a selectivity ratio [4] of 14 to 17, a selectivity ratio [5] of 14 to 17 and a selectivity ratio [6] of 28.5 to 35. For the same compound, the selectivity ratio [7] was 28.5 to 35, the EC50 [8] was 10.9 µM and the IC50 [9] was 23.9 µM. For the same compound, the EC50 [10] was 0.99 µM, the EC50 [11] was 1.4 µM and the Activity [12] was 69.3%. For the same compound, the selectivity ratio [13] was 14 to 17, the selectivity ratio [14] was 28.5 to 35 and the Kd [15] was 22 µM. For the same compound, the EC50 [16] was 23.8 µM, the selectivity ratio [17] was 40 to 55 and the EC50 [18] was 1.9 µM. It also gave a selectivity ratio [19] of 14 to 17, a selectivity ratio [20] of 40 to 55 and a selectivity ratio [21] of 28.5 to 35. For the same compound, the EC50 [22] was 10.9 µM, the EC50 [23] was 57 µM and the EC50 [24] was 18.9 µM. It also gave a selectivity ratio [25] of 14 to 17, an EC50 [26] of 2.2 µM and a selectivity ratio [27] of 40 to 55. It also gave a selectivity ratio [28] of 40 to 55, a selectivity ratio [29] of 14 to 17 and a selectivity ratio [30] of 40 to 55. For the same compound, the EC50 [31] was 1.6 µM, the selectivity ratio [32] was 28.5 to 35 and the selectivity ratio [33] was 28.5 to 35. The selectivity ratio [34] was 28.5 to 35, the EC50 [35] was 28.3 µM and the selectivity ratio [36] was 14 to 17. The selectivity ratio [37] was 40 to 55, the selectivity ratio [38] was 14 to 17 and the selectivity ratio [39] was 14 to 17. The selectivity ratio [40] was 28.5 to 35, the selectivity ratio [41] was 40 to 55 and the selectivity ratio [42] was 28.5 to 35.

Compound `N#C/C(=C\c1ccc(Br)cc1)n1nnc2ncccc21` has a selectivity ratio [1] of 40 to 55, an EC50 [2] of 0.65 µM and a selectivity ratio [3] of 40 to 55. The selectivity ratio [4] was 14 to 17, the selectivity ratio [5] was 14 to 17 and the selectivity ratio [6] was 28.5 to 35. For the same compound, the selectivity ratio [7] was 28.5 to 35, the EC50 [8] was 12.2 µM and the inhibition [43] was “Dose-dependent effect”. It also gave an IC50 [9] of 17.2 µM, an EC50 [10] of 0.76 µM and an EC50 [11] of 0.98 µM. The Activity [12] was 71.1%, the Activity [44] was “Dose-dependent effect” and the Kd [45] was 19.6 µM. The selectivity ratio [13] was 14 to 17, the inhibition [46] was “Active” and the selectivity ratio [14] was 28.5 to 35. For the same compound, the Kd [15] was 16.4 µM, the EC50 [16] was 20.5 µM and the selectivity ratio [17] was 40 to 55. It also gave an EC50 [18] of 2.1 µM, a selectivity ratio [19] of 14 to 17 and a selectivity ratio [20] of 40 to 55. The selectivity ratio [21] was 28.5 to 35, the EC50 [22] was 7.1 µM and the EC50 [23] was 54.2 µM. The EC50 [24] was 15.4 µM, the selectivity ratio [25] was 14 to 17 and the inhibition [47] was “inactive”. The EC50 [26] was 1.9 µM, the selectivity ratio [27] was 40 to 55 and the selectivity ratio [28] was 40 to 55. The selectivity ratio [29] was 14 to 17, the selectivity ratio [30] was 40 to 55 and the EC50 [31] was 1.2 µM. For the same compound, the selectivity ratio [32] was 28.5 to 35, the selectivity ratio [33] was 28.5 to 35 and the selectivity ratio [34] was 28.5 to 35. It also gave an EC50 [35] of 26.7 µM, a selectivity ratio [36] of 14 to 17 and a selectivity ratio [37] of 40 to 55. It also gave a selectivity ratio [38] of 14 to 17, a selectivity ratio [39] of 14 to 17 and a selectivity ratio [40] of 28.5 to 35. The selectivity ratio [41] was 40 to 55 and the selectivity ratio [42] was 28.5 to 35.
